Target: T1, ΔF508-CFTR (Homo sapiens, UniProt P13569, DEL508-508)
T1 construct: expressed in transfected cells
Test: Membrane potential optical assay (FRET voltage-sensor dyes, VIPR), identification of potentiator compounds
Assay type: cell-based
Details: Table 3; assay not given
Method in brief: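 Potentiator screen measured membrane potential via FRET between CC2-DMPE donor and DiSBAC2(3), read on VIPR II. Compound went in with the first addition of chloride-free gluconate bath; cells were ΔF508-CFTR-expressing NIH3T3 mouse fibroblasts, temperature-corrected at 27 °C for 24 h.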

T1 sequence (P13569 with tags, fused parts or gaps DEL508-508): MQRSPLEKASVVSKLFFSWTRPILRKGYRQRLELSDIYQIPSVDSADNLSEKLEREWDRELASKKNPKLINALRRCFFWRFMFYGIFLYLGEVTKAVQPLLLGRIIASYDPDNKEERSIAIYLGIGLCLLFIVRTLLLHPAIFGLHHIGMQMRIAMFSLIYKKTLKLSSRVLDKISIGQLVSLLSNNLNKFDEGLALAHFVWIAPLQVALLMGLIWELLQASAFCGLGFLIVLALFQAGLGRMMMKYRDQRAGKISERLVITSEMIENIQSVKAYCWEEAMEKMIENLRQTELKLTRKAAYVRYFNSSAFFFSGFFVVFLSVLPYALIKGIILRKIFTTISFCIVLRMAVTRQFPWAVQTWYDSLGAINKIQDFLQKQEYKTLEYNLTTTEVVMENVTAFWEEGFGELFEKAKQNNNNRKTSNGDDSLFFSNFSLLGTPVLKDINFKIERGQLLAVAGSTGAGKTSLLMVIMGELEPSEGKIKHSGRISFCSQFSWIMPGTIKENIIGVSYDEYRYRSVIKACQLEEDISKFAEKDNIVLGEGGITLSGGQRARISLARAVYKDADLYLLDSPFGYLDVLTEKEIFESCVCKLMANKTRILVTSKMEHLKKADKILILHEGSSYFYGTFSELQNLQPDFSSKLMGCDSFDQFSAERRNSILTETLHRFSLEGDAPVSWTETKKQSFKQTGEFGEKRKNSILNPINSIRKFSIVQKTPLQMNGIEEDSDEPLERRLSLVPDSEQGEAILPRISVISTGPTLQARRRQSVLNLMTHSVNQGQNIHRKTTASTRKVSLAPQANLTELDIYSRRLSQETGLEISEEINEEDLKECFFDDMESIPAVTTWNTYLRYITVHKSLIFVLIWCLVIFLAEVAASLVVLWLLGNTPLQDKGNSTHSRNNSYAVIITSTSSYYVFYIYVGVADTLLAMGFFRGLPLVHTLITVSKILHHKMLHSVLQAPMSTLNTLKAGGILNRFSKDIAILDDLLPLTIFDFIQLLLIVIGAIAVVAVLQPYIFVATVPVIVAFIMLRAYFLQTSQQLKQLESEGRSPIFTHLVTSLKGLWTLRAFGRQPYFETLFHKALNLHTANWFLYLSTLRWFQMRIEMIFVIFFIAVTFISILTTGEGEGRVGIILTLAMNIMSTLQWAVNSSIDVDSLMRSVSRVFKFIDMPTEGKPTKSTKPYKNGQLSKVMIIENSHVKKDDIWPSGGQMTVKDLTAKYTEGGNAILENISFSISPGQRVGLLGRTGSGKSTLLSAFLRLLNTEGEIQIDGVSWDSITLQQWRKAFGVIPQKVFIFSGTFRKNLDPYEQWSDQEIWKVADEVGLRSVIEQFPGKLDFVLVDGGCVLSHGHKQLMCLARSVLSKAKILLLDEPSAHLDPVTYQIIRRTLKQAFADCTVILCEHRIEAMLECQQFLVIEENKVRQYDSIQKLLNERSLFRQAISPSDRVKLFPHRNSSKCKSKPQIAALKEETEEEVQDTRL

SMILES | EC50
CC(C)(C)c1cc(C(C)(C)C)c(NC(=O)c2c[nH]c3ccc(C(F)(F)F)cc3c2=O)cc1O [Compound 515, N-(5-hydroxy-2,4-ditert-butyl-phenyl)-4-oxo-6-(trifluoromethyl)-1H-quinoline-3-carboxamide] | 10 to 25 µM

Same assay, conditions: Table 3; assay not given; read-out: % Activity (% Efficacy, relative efficacy)

SMILES | Emax
Cc1cccc2[nH]cc(C(=O)Nc3ccc(N4CCC[C@@H]4C)cc3C(F)(F)F)c(=O)c12 [Compound 511, (S)-5-methyl-N-(4-(2-methylpyrrolidin-1-yl)-2-(trifluoromethyl)phenyl)-4-oxo-1,4-dihydroquinoline-3-carboxamide] | 25 to 100%
O=C(Nc1cc(O)c(C2CCCC2)cc1C#CCO)c1c[nH]c2ccccc2c1=O [Compound 512, N-[4-cyclopentyl-5-hydroxy-2-(3-hydroxyprop-1-ynyl)phenyl]-4-oxo-1H-quinoline-3-carboxamide] | 25 to 100%
CN(C)[C@H]1CCN(c2ccc(NC(=O)c3c[nH]c4ccccc4c3=O)c(C(F)(F)F)c2)C1 [Compound 513, (S)-N-(4-(3-(dimethylamino)pyrrolidin-1-yl)-2-(trifluoromethyl)phenyl)-4-oxo-1,4-dihydroquinoline-3-carboxamide] | 25 to 100%
O=C(Nc1ccc(C(F)(F)F)cc1N1CCCCC1)c1c[nH]c2ccccc2c1=O [Compound 514, 4-oxo-N-[2-(1-piperidyl)-4-(trifluoromethyl)phenyl]-1H-quinoline-3-carboxamide] | 25 to 100%
CC(C)(C)c1cc(C(C)(C)C)c(NC(=O)c2c[nH]c3ccc(C(F)(F)F)cc3c2=O)cc1O [Compound 515, N-(5-hydroxy-2,4-ditert-butyl-phenyl)-4-oxo-6-(trifluoromethyl)-1H-quinoline-3-carboxamide] | < 25%
Cc1cccc2[nH]cc(C(=O)Nc3ccc(N4[C@@H](C)CC[C@@H]4C)cc3C(F)(F)F)c(=O)c12 [Compound 516, N-(4-((2S,5S)-2,5-dimethylpyrrolidin-1-yl)-2-(trifluoromethyl)phenyl)-5-methyl-4-oxo-1,4-dihydroquinoline-3-carboxamide] | 25 to 100%
CCOc1cccc2c(=O)c(C(=O)Nc3ccc(C(C)C)cc3C(F)(F)F)c[nH]c12 [Compound 517, 8-ethoxy-N-[4-isopropyl-2-(trifluoromethyl)phenyl]-4-oxo-1H-quinoline-3-carboxamide] | < 25%
Cc1cc(C(C)(C)C)c(O)cc1NC(=O)c1c[nH]c2ccccc2c1=O [Compound 518, N-(5-hydroxy-2-methyl-4-tert-butyl-phenyl)-4-oxo-1H-quinoline-3-carboxamide] | 25 to 100%
CC(C)(C)c1cc(F)c(NC(=O)c2c[nH]c3c(C#N)cccc3c2=O)cc1O [Compound 519, 8-cyano-N-(2-fluoro-5-hydroxy-4-tert-butyl-phenyl)-4-oxo-1H-quinoline-3-carboxamide] | 25 to 100%
CC(C)(C)c1cc(C(C)(C)C)c(NC(=O)c2c[nH]c3cccc(C(F)(F)F)c3c2=O)cc1O [Compound 520, N-(5-hydroxy-2,4-ditert-butyl-phenyl)-4-oxo-5-(trifluoromethyl)-1H-quinoline-3-carboxamide] | 25 to 100%
CC1(c2ccc(NC(=O)c3c[nH]c4ccc(F)cc4c3=O)cc2)COC1 [Compound 521, 6-fluoro-N-[4-(3-methyloxetan-3-yl)phenyl]-4-oxo-1H-quinoline-3-carboxamide] | 25 to 100%
O=C(Nc1ccc(C2CCCCC2)c(O)c1)c1c[nH]c2cccc(O)c2c1=O [Compound 522, N-(4-cyclohexyl-3-hydroxy-phenyl)-5-hydroxy-4-oxo-1H-quinoline-3-carboxamide] | 25 to 100%
CC1(c2ccc(NC(=O)c3c[nH]c4ccccc4c3=O)cc2)COC1 [Compound 523, N-[4-(3-methyloxetan-3-yl)phenyl]-4-oxo-1H-quinoline-3-carboxamide] | 25 to 100%
CCOc1ccc2[nH]cc(C(=O)Nc3cc(O)c(C(C)(C)C)cc3C(C)(C)C)c(=O)c2c1 [Compound 524, 6-ethoxy-N-(5-hydroxy-2,4-ditert-butyl-phenyl)-4-oxo-1H-quinoline-3-carboxamide] | 25 to 100%
CC(C)(C)c1cc(C(C)(C)C)c(NC(=O)c2c[nH]c3ccc(C#N)cc3c2=O)cc1O [Compound 525, 6-cyano-N-(5-hydroxy-2,4-ditert-butyl-phenyl)-4-oxo-1H-quinoline-3-carboxamide] | < 25%
CCOc1cccc2c(=O)c(C(=O)Nc3cc(O)c(C(C)(C)C)cc3F)c[nH]c12 [Compound 526, 8-ethoxy-N-(2-fluoro-5-hydroxy-4-tert-butyl-phenyl)-4-oxo-1H-quinoline-3-carboxamide] | < 25%
CC(C)(C)c1ccc(NC(=O)c2c[nH]c3ccc(F)cc3c2=O)cc1F [Compound 527, 6-fluoro-N-(3-fluoro-4-tert-butyl-phenyl)-4-oxo-1H-quinoline-3-carboxamide] | 25 to 100%
Cc1cccc2[nH]cc(C(=O)Nc3ccc(N4CCC(F)(F)C4)cc3C(F)(F)F)c(=O)c12 [Compound 528, N-[4-(3,3-difluoropyrrolidin-1-yl)-2-(trifluoromethyl)phenyl]-5-methyl-4-oxo-1H-quinoline-3-carboxamide] | 25 to 100%

SMILES | Emax
CC1(c2ccc(NC(=O)c3c[nH]c4cccc(O)c4c3=O)cc2)COC1 [Compound 529, 5-hydroxy-N-[4-(3-methyloxetan-3-yl)phenyl]-4-oxo-1H-quinoline-3-carboxamide] | 25 to 100%
COC(=O)[C@@H]1[C@@H](C)CCN1c1ccc(NC(=O)c2c[nH]c3ccccc3c2=O)c(C(F)(F)F)c1 [Compound 530, (2S,3S)-methyl 3-methyl-1-(4-(4-oxo-1,4-dihydroquinoline-3-carboxamido)-3-(trifluoromethyl)phenyl)pyrrolidine-2-carboxylate] | 25 to 100%
COC(=O)[C@@H]1[C@H]2C[C@H]2CN1c1ccc(NC(=O)c2c[nH]c3ccccc3c2=O)c(C(F)(F)F)c1 [Compound 531, (1S,2S,5R)-methyl 3-(4-(4-oxo-1,4-dihydroquinoline-3-carboxamido)-3-(trifluoromethyl)phenyl)-3-azabicyclo[3.1.0]hexane-2-carboxylate] | 25 to 100%
O=C(Nc1ccc(C(F)(F)F)cc1Cl)c1c[nH]c2ccccc2c1=O [Compound 532, N-[2-chloro-4-(trifluoromethyl)phenyl]-4-oxo-1H-quinoline-3-carboxamide] | 25 to 100%
COc1ccc2[nH]cc(C(=O)Nc3cc4[nH]ccc4cc3C(C)(C)C)c(=O)c2c1 [Compound 533, 6-methoxy-4-oxo-N-(5-tert-butyl-1H-indol-6-yl)-1H-quinoline-3-carboxamide] | > 100%
CN(C)[C@@H]1CCN(c2ccc(NC(=O)c3c[nH]c4ccccc4c3=O)c(C(F)(F)F)c2)C1 [Compound 534, (R)-N-(4-(3-(dimethylamino)pyrrolidin-1-yl)-2-(trifluoromethyl)phenyl)-4-oxo-1,4-dihydroquinoline-3-carboxamide] | 25 to 100%
CC(C)(C)c1c[nH]c2cc(NC(=O)c3c[nH]c4cccc(O)c4c3=O)ccc12 [Compound 535, 5-hydroxy-4-oxo-N-(3-tert-butyl-1H-indol-6-yl)-1H-quinoline-3-carboxamide] | 25 to 100%
CC1(C)CCN(c2ccc(NC(=O)c3c[nH]c4ccccc4c3=O)c(C(F)(F)F)c2)C1 [Compound 536, N-[4-(3,3-dimethylpyrrolidin-1-yl)-2-(trifluoromethyl)phenyl]-4-oxo-1H-quinoline-3-carboxamide] | 25 to 100%
O=C(Nc1ccc2cc(C(F)(F)F)[nH]c2c1)c1c[nH]c2ccccc2c1=O [Compound 537, 4-oxo-N-[2-(trifluoromethyl)-1H-indol-6-yl]-1H-quinoline-3-carboxamide] | 25 to 100%
Cc1cc(OC(F)(F)F)ccc1NC(=O)c1c[nH]c2ccccc2c1=O [Compound 538, N-[2-methyl-4-(trifluoromethoxy)phenyl]-4-oxo-1H-quinoline-3-carboxamide] | 25 to 100%
Cc1cccc2[nH]cc(C(=O)Nc3ccc(N4[C@H](C)CC[C@H]4C)cc3C(F)(F)F)c(=O)c12 [Compound 539, N-(4-((2R,5R)-2,5-dimethylpyrrolidin-1-yl)-2-(trifluoromethyl)phenyl)-5-methyl-4-oxo-1,4-dihydroquinoline-3-carboxamide] | 25 to 100%
CC(C)(C)OC(=O)[C@H]1CCCN1c1ccc(NC(=O)c2c[nH]c3ccccc3c2=O)c(C(F)(F)F)c1 [Compound 540, (R)-tert-butyl 1-(4-(4-oxo-1,4-dihydroquinoline-3-carboxamido)-3-(trifluoromethyl)phenyl)pyrrolidine-2-carboxylate] | > 100%
Cc1cccc2[nH]cc(C(=O)Nc3ccc(N4CC[C@@H](F)C4)cc3C(F)(F)F)c(=O)c12 [Compound 541, (R)-N-(4-(3-fluoropyrrolidin-1-yl)-2-(trifluoromethyl)phenyl)-5-methyl-4-oxo-1,4-dihydroquinoline-3-carboxamide] | 25 to 100%
CNc1cccc2[nH]cc(C(=O)Nc3cc(O)c(C(C)(C)C)cc3C(C)(C)C)c(=O)c12 [Compound 542, N-(5-hydroxy-2,4-ditert-butyl-phenyl)-5-methylamino-4-oxo-1H-quinoline-3-carboxamide] | > 100%
CN(C)c1ccc2[nH]cc(C(=O)Nc3cc(O)c(C(C)(C)C)cc3C(C)(C)C)c(=O)c2c1 [Compound 544, 6-dimethylamino-N-(5-hydroxy-2,4-ditert-butyl-phenyl)-4-oxo-1H-quinoline-3-carboxamide] | 25 to 100%
O=C(Nc1ccc2c(C(F)(F)F)c[nH]c2c1)c1c[nH]c2ccccc2c1=O [Compound 545, 4-oxo-N-[3-(trifluoromethyl)-1H-indol-6-yl]-1H-quinoline-3-carboxamide] | > 100%
Cc1cccc2[nH]cc(C(=O)Nc3ccc(N4CCC(C)C4)cc3C(F)(F)F)c(=O)c12 (stereo not shown) [Compound 546, 5-methyl-N-[4-(3-methylpyrrolidin-1-yl)-2-(trifluoromethyl)phenyl]-4-oxo-1H-quinoline-3-carboxamide] | 25 to 100%
Cc1cccc2[nH]cc(C(=O)Nc3ccc(OC(C)C)cc3C(F)(F)F)c(=O)c12 [Compound 547, N-[4-isopropoxy-2-(trifluoromethyl)phenyl]-5-methyl-4-oxo-1H-quinoline-3-carboxamide] | > 100%
